Laboratory results taken from ChEMBL document CHEMBL1201862, “PubChem BioAssay data set” (2004).
Active and inactive are the calls of the source. Cut-off read from the data, not from the text of the source, for most assays here: actives have a measured EC50 and inactives only a lower limit.

Tests used:
[1] = Luminescence Cell-Based Dose Response HTS to Identify Activators of Luciferase Translation or Activity in H4 […] Cells. [Related pubchem assays: 1829 (Project Summary), 1814 (Primary HTS)]; assay type: functional
[2] = viability loss in THP-1 monocytes – THP-1 cells, cytotoxicity control for Vif-APOBEC3G degradation inhibitor project, dose response (AID 1117359); assay type: functional; details: THP-1
[3] = Luminescence Cell-Based Dose Confirmation HTS to Identify Activators of 5'UTR Stem-Loop Driven Alpha-Synuclein mRNA Translation in H4 Neuroglioblastoma Cells. [Related pubchem assays: 1829 (Project Summary), 1814 (Primary HTS)]; assay type: functional
[4] = test system: H4; test: Luminescence Cell-Based Dose Response HTS to Identify Activators of 5'UTR Stem-Loop Driven Prion Protein mRNA Translation in H4 Neuroglioblastoma Cells. [Related pubchem assays: 1829 (Project Summary), 1814 (Primary HTS)]; assay type: functional; details: Homo sapiens
[5] = inhibition of ADAM10 peptide cleavage – biochemical, FRET peptide substrate, recombinant human ADAM10, selectivity assay for ADAM17 exosite inhibitor project, dose response (AID 743259);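 note: ADAM10 enzyme cleaving a FRET peptide substrate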
[6] = molecular target: Disintegrin and metalloproteinase domain-containing protein 17 (Homo sapiens, UniProt P78536); test: exosite inhibitors of ADAM17, dose response, biochemical (AID 743260)
Disintegrin and metalloproteinase domain-containing protein 17, sequence (P78536 whole entry, the tested form may be a part): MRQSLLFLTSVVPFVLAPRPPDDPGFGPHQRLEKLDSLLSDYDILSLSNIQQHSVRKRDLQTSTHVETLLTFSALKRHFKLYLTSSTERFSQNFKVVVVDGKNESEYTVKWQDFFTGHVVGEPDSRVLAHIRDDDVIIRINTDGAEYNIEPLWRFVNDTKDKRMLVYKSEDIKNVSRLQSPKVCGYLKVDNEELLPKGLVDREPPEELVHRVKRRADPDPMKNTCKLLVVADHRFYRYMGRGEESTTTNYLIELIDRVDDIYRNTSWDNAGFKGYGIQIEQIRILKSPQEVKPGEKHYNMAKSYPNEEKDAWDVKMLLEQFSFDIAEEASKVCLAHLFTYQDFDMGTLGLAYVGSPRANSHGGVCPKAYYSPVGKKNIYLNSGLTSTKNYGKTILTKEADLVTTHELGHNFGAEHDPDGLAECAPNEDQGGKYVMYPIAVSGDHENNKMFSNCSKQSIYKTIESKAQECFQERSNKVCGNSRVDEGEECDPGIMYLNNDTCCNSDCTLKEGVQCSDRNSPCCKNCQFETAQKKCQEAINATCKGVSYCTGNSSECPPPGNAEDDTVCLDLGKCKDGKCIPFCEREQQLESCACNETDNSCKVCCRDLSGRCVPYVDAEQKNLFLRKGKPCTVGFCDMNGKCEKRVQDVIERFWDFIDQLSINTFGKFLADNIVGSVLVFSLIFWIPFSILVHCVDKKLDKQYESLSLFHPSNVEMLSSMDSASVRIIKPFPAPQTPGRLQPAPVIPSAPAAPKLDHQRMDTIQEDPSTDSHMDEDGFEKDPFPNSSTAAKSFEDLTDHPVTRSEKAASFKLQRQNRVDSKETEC

[7] = luciferase reporter signal reduction – luminescence, H4-C neuroglioblastoma cells, dose response (AID 2458); assay type: functional, cell-based;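 note: H4 neuroglioblastoma cells stably carrying a luciferase reporter gene fusion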
[8] = alpha-synuclein stem-loop luciferase translation blockers – H4 neuroglioma cells, luminescence, confirmation (AID 1988); assay type: functional, cell-based
[9] = HEK-293T viability loss after treatment – luminescence, T-cell screen hits, cytotoxicity control for TCR NF-kB inhibitor project, dose response (AID 489026); assay type: functional, cell-based;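 note: cells exposed to compound about 14 hours before the viability readout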
[10] = Luminescence Cell-Based Dose Response HTS to Identify Inhibitors of 5'UTR Stem-Loop Driven Prion Protein mRNA Translation in H4 Neuroglioblastoma Cells. [Related pubchem assays: 1827 (Project Summary), 1813 (Primary HTS)]; assay type: functional
[11] = alpha-synuclein stem-loop translation blockers – luminescence, H4 neuroglioblastoma cells, dose confirmation, confirmation (AID 2454); assay type: functional, cell-based;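 note: H4 neuroglioblastoma cells carrying an alpha-synuclein 5'UTR luciferase reporter; potency for inhibition of the luciferase signal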
[12] = cells; assay type: functional, cell-based
[13] = luciferase reporter signal suppression in cells – H4 neuroglioma cells, luminescence, dose response (AID 1990); assay type: functional, cell-based
[14] = molecular target: SUMO-activating enzyme (Homo sapiens, UniProt Q9UBT2); test: blockers of UBC9-mediated SUMO conjugation – biochemical, AlphaScreen, SUMOylation inhibitor project, confirmation (AID 2018); assay type: functional
SUMO-activating enzyme, sequence (Q9UBE0 whole entry): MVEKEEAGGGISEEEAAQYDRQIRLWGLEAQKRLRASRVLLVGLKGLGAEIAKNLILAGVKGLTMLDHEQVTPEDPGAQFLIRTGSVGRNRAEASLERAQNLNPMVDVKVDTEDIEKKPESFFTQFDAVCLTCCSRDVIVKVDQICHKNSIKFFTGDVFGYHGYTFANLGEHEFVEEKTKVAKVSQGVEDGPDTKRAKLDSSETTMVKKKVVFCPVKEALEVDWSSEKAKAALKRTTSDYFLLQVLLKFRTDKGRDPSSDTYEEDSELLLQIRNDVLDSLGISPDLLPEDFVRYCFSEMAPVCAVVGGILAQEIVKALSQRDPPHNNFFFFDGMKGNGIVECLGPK
SUMO-activating enzyme, sequence (Q9UBT2 whole entry): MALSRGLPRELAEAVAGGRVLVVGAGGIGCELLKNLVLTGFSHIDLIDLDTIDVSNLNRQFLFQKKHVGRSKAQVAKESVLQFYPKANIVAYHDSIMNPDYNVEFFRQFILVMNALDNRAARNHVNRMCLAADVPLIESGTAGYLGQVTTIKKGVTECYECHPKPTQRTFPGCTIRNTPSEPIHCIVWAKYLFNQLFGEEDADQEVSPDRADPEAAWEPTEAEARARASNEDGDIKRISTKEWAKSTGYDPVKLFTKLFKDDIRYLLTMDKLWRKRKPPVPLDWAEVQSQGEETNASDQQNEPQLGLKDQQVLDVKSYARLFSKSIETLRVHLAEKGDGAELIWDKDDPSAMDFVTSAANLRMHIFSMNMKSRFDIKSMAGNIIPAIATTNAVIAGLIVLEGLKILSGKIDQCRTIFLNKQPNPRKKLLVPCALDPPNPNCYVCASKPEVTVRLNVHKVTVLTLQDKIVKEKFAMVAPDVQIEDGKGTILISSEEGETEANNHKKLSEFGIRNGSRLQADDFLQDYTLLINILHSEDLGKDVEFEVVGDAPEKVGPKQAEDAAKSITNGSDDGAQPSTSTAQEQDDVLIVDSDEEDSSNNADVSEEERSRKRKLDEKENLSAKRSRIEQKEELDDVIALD

[15] = molecular target: DNA dC->dU-editing enzyme APOBEC-3G (Homo sapiens, UniProt Q9HC16); test: Dose Response confirmation of small molecule APOBEC3G DNA Deaminase Inhibitors via a fluorescence-based single-stranded DNA deaminase assay. [Related pubchem assays (depositor defined):AID493012, AID493028]; assay type: functional
DNA dC->dU-editing enzyme APOBEC-3G, sequence (Q9HC16 whole entry): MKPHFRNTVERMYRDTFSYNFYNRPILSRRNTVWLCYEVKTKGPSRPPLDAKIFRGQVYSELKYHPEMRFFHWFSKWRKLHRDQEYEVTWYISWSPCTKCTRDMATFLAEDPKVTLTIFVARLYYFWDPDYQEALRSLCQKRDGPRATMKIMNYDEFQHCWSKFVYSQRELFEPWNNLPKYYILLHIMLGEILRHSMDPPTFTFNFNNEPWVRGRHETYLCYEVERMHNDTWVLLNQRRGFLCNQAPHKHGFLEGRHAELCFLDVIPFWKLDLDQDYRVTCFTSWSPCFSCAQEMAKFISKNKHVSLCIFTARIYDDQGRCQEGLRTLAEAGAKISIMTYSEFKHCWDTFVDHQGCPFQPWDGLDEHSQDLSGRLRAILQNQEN

[16] = molecular target: T1, Rac GTPase-activating protein 1 (Homo sapiens, UniProt Q9H0H5); test: blockers of MgcRacGAP-driven Rac1 GTP hydrolysis – biochemical, ADP Hunter fluorescence, primary and confirmatory, confirmation (AID 624330); assay type: functional
T1 sequence (Q9H0H5 whole entry): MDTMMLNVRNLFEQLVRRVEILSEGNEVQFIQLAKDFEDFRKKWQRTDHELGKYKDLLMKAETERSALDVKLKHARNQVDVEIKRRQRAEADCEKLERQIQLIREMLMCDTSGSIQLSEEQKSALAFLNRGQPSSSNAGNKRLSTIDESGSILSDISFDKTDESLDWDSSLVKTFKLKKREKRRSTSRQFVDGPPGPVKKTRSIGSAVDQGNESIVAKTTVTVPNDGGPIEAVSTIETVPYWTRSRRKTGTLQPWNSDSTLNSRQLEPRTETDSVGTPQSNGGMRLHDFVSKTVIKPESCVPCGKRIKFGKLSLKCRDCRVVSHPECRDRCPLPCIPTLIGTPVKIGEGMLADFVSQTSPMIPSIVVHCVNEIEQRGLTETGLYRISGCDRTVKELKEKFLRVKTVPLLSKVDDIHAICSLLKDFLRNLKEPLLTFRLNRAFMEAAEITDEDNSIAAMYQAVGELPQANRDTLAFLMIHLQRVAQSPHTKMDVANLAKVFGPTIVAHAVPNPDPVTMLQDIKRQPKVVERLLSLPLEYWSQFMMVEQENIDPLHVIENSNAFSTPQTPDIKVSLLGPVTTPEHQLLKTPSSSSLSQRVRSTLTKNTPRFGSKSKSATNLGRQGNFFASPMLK

[17] = NIH-3T3 fibroblast cytotoxicity, dose response, cytotoxicity control, cell-based, fluorescence, Alamar Blue, secondary assay (AID 2327); assay type: functional;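 note: NIH-3T3 mouse fibroblasts cultured with fluconazole at 8 µg/mL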
[18] = fluconazole-exposed Candida albicans growth modulators – fluorescence, retest, confirmation (AID 2467); assay type: functional, cell-based

Question: Which results are given for Cc1cc(C)c([N+](=O)[O-])cc1-c1ccc(/C=N/c2c(-c3ccco3)nc3ccccn23)o1?
Answer: EC50 [1]: 12 µM (active); CC50 [2]: 31.6 µM (active); EC50 [3]: 8.26 µM (active); EC50 [4]: 14.8 µM (active)

Question: With O=C(OCc1cnc(Cl)s1)c1cccc(Cl)c1Cl as the molecule, how does the IC50 [5] read?
Answer: > 69.6 µM (inactive)

Question: And the IC50 [6]?
Answer: > 69.6 µM (inactive)

Question: With CCOC(=O)c1c(NC(=O)CCN2CCOCC2)sc(C)c1-c1ccccc1 as the molecule, how does the CC50 [2] read?
Answer: > 40 µM (active)

Question: With Cc1cc(NC(=O)CSc2nc3ccccc3c(=O)n2C2CCCC2)no1 as the molecule, how does the EC50 [7] read?
Answer: 1.5 µM (active)

Question: And the EC50 [8]?
Answer: < 0.1 µM (active)

Question: And the IC50 [9]?
Answer: > 80 µM (inactive)

Question: And the EC50 [10]?
Answer: < 0.1 µM (active)

Question: And the EC50 [11]?
Answer: 1.89 µM (inconclusive)

Question: And the EC50 [12]?
Answer: > 12 µM (not active)

Question: And the EC50 [13]?
Answer: 4.73 µM (inconclusive)

Question: Which EC50 [7] does the source give for CN(C)c1ccc2c(c1)OC(N)=C(C#N)C2c1cccc(F)c1 (configuration not stated) here?
Answer: 0.228 µM (active)

Question: What about the EC50 [8] of the same molecule?
Answer: < 0.1 µM (active)

Question: What about the IC50 [9] of the same molecule?
Answer: 40.4 µM (inactive)

Question: And the EC50 [10]?
Answer: < 0.1 µM (active)

Question: What about the EC50 [11] of the same molecule?
Answer: 0.338 µM (active)

Question: And the EC50 [12]?
Answer: 0.233 µM (active)

Question: What about the EC50 [13] of the same molecule?
Answer: < 0.1 µM (active)

Question: With O=C(CCCN1C(=O)/C(=C\c2ccco2)SC1=S)Nc1cccc2ccccc12 as the molecule, how does the CC50 [2] read?
Answer: 29 µM (active)

Question: Which results are given for COc1cc(/C=C(\C#N)c2ccccn2)ccc1OCc1ccccc1?
Answer: IC50 [5]: > 69.5 µM (inactive); IC50 [6]: > 69.5 µM (inactive)

Question: For O=C(Nc1ccncc1)C1CCN(S(=O)(=O)c2c(Cl)cccc2Cl)CC1, which CC50 [2] is on record?
Answer: > 40 µM (active)

Question: With O=C1N(c2ccc(Cl)c(Cl)c2)CN(Cc2ccccc2)CN1n1cnnc1 as the molecule, how does the IC50 [14] read?
Answer: > 100 µM (inactive)

Question: For CC(C)Cn1c(-c2ccc(Br)o2)n[nH]c1=S, which IC50 [15] is on record?
Answer: 2.83 µM (active)

Question: What about the IC50 [16] of the same molecule?
Answer: 105 µM (active)

Question: Which IC50 [5] does the source give for O=[N+]([O-])CC(c1ccccc1)P(=O)(c1ccccc1)c1ccccc1 (configuration not stated) here?
Answer: > 69.5 µM (inactive)

Question: And the EC50 [17]?
Answer: > 160 µM (inactive)

Question: What about the EC50 [18] of the same molecule?
Answer: 5.58 µM (active)

Question: What about the IC50 [6] of the same molecule?
Answer: 10.9 µM (inactive)
